Assay results taken from patent US10947574B2, “Method for producing fermented carotenoid using carotenoid-producing bacteria obtained by using cobalt-containing culturing medium” (ENEOS CORPORATION, priority 2015, dated 2021).

System: Paracoccus carotinifaciens strain E-396 (FERM BP-4283)
Test: Example 4: medium lots A-E with cobalt chloride, growth (OD610) and carotenoid levels (HPLC)
Assay type: cell-based
Settings: for Astaxanthin / OD610 / Total carotenoid: cobalt chloride added 0.1 mg/L (0.42 μmol/L)
Method: In the following examples, carotenoids were quantified by high performance liquid chromatography (HPLC) as follows.
Two columns of Inertsil SIL-100A, 5 μm (ϕ4.6 mm×250 mm) (GL Sciences Inc., Japan) were connected together for use as a column. For elution, a mixed solution of n-hexane, tetrahydrofuran and methanol (40:20:1) serving as a mobile phase was passed through the column at a flow rate of 1.0 mL per minute at a constant temperature around room temperature. For measurement, samples were each dissolved in tetrahydrofuran and diluted 100-fold with the mobile phase, and 20 μL aliquots of the resulting dilutions were injected into the column. The column eluates were detected at a wavelength of 470 nm. As a standard for quantification, astaxanthin (SIGMA, Cat. No. A9335) was used. The astaxanthin concentration of the standard solution was determined using the following equation after measuring the absorbance (A) of the standard solution at 477 nm and the area percentage % (B) of the astaxanthin peak in HPLC analysis under the above conditions.
Subsequently, medium ingredients from different manufacturers and lots were combined to prepare 5 types of media, i.e., A, B, C, D and E indicated in Table 7, each having the following composition (glucose 30 g/L, filtered corn steep liquor 30 g/L, ammonium sulfate 1.5 g/L, potassium dihydrogen phosphate 1.5 g/L, disodium hydrogen phosphate dodecahydrate 3.8 g/L, calcium chloride dihydrate 5.0 g/L, magnesium sulfate heptahydrate 0.7 g/L, iron sulfate heptahydrate 1.0 g/L, silicon-based defoaming agent 0.2 g/L). These media were each dispensed in 7.2 ml volumes into cotton-plugged test tubes having an inner diameter of 18 mm to prepare 2 test tubes for each test tube medium for production, i.e., 10 test tubes in total.
The resulting culture solution was then inoculated in 0.05 ml volumes into the 5 types of test tube media for production having different cobalt concentrations (10 test tubes in total), and cultured under shaking at 28° C. for 4 days at 300 spm.
After being cultured for 4 days, the culture solutions were each measured for microbial cell growth by OD610 and measure for carotenoid levels by HPLC.

[1] = medium lot A, total cobalt 0.42 μmol/L
[2] = medium lot B, total cobalt 0.62 μmol/L
[3] = medium lot C, total cobalt 0.46 μmol/L
[4] = medium lot D, total cobalt 0.43 μmol/L
[5] = medium lot E, total cobalt 0.49 μmol/L
[6] = final concentration of 0.1 mg/L, regardless of manufacturer and lot of medium ingredient

For `O.O.O.O.O.O.[Cl-].[Cl-].[Co+2]` [Cobalt chloride hexahydrate], the Astaxanthin (Average of medium lots A-E) was 28 mg/L, the OD610 (Average of medium lots A-E) was 37 and the Total carotenoid (Average of medium lots A-E) was 41 mg/L. For the same compound, the Astaxanthin [1] was 29 mg/L, the OD610 [1] was 37 and the Total carotenoid [1] was 41 mg/L. For the same compound, the Astaxanthin [2] was 26 mg/L, the OD610 [2] was 39 and the Total carotenoid [2] was 40 mg/L. The Astaxanthin [3] was 29 mg/L, the OD610 [3] was 38 and the Total carotenoid [3] was 44 mg/L. The Astaxanthin [4] was 27 mg/L, the OD610 [4] was 36 and the Total carotenoid [4] was 41 mg/L. The Astaxanthin [5] was 28 mg/L, the OD610 [5] was 37 and the Total carotenoid [5] was 40 mg/L. For the same compound, the “bacterial growth, in words” value [6] was “high” and the “carotenoid productivity, in words” value [6] was “high”.
